Experimental findings from ChEMBL document CHEMBL5126539, “Recent development of BTK-based dual inhibitors in the treatment of cancers” (Eur J Med Chem, 2022) are described below.

Test [1] concerns DOHH-2. Nature of the test: Cytotoxicity against human DOHH-2 cells expressing BTK and PI3kdelta assessed as inhibition of cell growth incubated for 72 hrs by celltiter-glo assay. In kind it is functional, cell-based. Particulars: DOHH-2, 72 h.
Test [2] relates to DOHH-2. Nature of the test: Antitumor activity against human DOHH-2 cells xenografted in CB17/SCID mouse assessed as reduction in tumor growth at 25 mg/kg, po administered twice daily in combination with ibrutinib at 15 mg/kg for 30 days and measured twice a week relative to control. Type of test: functional. Details: scale not given: the % may be the effect or the level left. Conditions: time 30 day.

The test system of test [3] is DOHH-2. Nature of the test: Antitumor activity against human DOHH-2 cells xenografted in CB17/SCID mouse assessed as reduction in tumor growth at 50 mg/kg, po administered twice daily in combination with ibrutinib at 30 mg/kg for 30 days and measured twice a week relative to control. Details: scale not given: the % may be the effect or the level left. Particulars: time 30 day. Type of test: functional.

In a further test the target is Tubulin (Homo sapiens) (UniProt P68371+Q9H4B7+P0DPH7+P68366+Q13509+Q71U36+P04350+Q3ZCM7+P07437+P68363+Q9BQE3+Q6PEY2+Q13885+Q9BVA1+Q9BUF5). In words: Inhibition of microtubule polymerization in human U-266 cells assessed as increase in phospho-Bcl2 expression at 10 uM measured upto 24 hrs by Western blot analysis relative to control. Type of test: cell-based.
Test [4] deals with Tyrosine-protein kinase HCK (Homo sapiens, UniProt P08631). Nature of the test: Inhibition of HCK (unknown origin).
Tyrosine-protein kinase HCK, sequence (P08631 whole entry): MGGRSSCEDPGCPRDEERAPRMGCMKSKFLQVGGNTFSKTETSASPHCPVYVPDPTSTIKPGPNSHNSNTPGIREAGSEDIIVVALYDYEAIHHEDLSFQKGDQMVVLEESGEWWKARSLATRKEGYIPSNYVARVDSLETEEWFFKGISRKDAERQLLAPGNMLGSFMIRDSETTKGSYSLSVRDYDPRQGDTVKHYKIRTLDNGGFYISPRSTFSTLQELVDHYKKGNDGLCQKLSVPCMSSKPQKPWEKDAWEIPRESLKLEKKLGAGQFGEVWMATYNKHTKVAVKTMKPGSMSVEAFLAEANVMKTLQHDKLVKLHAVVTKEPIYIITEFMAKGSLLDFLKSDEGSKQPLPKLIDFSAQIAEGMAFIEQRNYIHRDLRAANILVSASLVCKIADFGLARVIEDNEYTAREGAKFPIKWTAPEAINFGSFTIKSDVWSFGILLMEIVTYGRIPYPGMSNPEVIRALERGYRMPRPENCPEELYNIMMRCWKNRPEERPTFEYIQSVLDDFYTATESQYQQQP
For test [5], the target named is T1, Tyrosine-protein kinase BTK (Homo sapiens, UniProt Q06187). In words: Inhibition of BTK (unknown origin).
T1 sequence (Q06187 whole entry): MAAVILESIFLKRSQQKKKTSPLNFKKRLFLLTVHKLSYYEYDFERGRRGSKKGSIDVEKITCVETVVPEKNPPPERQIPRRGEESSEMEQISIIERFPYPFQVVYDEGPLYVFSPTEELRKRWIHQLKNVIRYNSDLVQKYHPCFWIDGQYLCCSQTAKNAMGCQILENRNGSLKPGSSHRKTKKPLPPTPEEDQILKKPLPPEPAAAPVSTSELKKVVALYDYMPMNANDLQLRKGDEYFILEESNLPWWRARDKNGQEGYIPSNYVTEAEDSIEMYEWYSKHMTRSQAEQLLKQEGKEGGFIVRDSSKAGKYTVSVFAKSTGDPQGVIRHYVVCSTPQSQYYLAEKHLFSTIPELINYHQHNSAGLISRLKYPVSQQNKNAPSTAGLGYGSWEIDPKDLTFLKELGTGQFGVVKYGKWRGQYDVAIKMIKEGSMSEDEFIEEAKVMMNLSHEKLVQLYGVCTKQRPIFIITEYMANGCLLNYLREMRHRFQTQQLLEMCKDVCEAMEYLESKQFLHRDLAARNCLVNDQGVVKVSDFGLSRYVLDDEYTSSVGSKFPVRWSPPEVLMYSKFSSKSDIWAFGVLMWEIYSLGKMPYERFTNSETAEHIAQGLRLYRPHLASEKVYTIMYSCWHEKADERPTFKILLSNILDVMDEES
Test [6] is described as follows: Inhibition of mTORC1 (unknown origin) expressed in HEK293T cells using 4EBP1 as substrate assessed as reduction in substrate phosphorylation preincubated for 30 mins followed by ATP addition and measured after 30 mins by Western blot analysis. Details: species or system Homo sapiens.
Test [7] concerns the target T1, Tyrosine-protein kinase BTK. Nature of the test: Inhibition of N-terminal His6-tagged human full length recombinant BTK expressed in baculovirus infected Sf21 insect cells using YIYGSFK as substrate preincubated for 5 mins followed by 33p-labeled ATP addition and measured after 1 hr by thin layer chromatography.
In another test the test system is PC-3. In words: Antitumor activity against human PC-3 cells xenografted in nude mouse assessed as inhibition of tumor growth at 10 mg/kg/day, ip administered for 42 days starting from 14 days post inoculation relative to control. In kind it is functional. Conditions: PC-3, 1008 h, time 42 day, read-out: TGI.
For test [8], the system named is DOHH-2. In words: Antitumor activity against human DOHH-2 cells xenografted in CB17/SCID mouse assessed as reduction in tumor growth at 100 mg/kg, po administered twice daily for 30 days and measured twice a week relative to control. Type of test: functional. Details: scale not given: the % may be the effect or the level left. Conditions: time 30 day.
For test [9], the target named is T2, Tyrosine-protein kinase JAK3 (Homo sapiens, UniProt P52333).
T2 sequence (P52333 whole entry): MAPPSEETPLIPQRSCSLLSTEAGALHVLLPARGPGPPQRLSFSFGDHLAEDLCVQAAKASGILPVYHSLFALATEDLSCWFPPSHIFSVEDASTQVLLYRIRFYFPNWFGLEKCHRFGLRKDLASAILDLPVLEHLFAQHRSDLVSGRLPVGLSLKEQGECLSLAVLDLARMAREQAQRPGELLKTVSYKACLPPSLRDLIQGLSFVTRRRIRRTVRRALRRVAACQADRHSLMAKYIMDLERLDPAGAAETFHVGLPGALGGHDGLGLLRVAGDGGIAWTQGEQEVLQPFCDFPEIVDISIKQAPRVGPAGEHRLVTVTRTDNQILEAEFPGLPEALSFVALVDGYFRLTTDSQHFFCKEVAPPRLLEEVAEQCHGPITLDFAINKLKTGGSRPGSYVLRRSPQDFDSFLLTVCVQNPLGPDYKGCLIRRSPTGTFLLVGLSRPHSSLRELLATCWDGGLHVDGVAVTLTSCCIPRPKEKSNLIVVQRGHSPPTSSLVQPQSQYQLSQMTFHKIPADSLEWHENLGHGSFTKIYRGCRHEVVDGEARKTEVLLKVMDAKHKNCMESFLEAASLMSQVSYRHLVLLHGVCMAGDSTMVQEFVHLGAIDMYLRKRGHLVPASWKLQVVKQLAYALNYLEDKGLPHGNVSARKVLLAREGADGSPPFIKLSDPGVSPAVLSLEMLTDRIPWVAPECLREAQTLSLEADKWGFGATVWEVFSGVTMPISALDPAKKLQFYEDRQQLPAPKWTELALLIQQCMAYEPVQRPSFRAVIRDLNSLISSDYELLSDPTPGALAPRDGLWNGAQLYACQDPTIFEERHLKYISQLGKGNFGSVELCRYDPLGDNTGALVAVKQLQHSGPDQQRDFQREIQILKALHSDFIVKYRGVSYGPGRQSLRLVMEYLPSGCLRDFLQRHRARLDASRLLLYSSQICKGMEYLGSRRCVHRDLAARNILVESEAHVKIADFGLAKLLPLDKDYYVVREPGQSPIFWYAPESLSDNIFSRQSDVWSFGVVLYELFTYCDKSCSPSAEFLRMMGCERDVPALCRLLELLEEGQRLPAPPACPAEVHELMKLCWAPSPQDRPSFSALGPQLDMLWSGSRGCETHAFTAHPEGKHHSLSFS
In words: Inhibition of recombinant JAK3 (unknown origin).

Test [10] has as its target T1, Tyrosine-protein kinase BTK. Nature of the test: Inhibition of BTK (unknown origin) assessed as residual activity at 200 nM relative to control.
In test [11] the target is T3, Cytoplasmic tyrosine-protein kinase BMX (Homo sapiens) (UniProt P51813).
T3 sequence (whole entry): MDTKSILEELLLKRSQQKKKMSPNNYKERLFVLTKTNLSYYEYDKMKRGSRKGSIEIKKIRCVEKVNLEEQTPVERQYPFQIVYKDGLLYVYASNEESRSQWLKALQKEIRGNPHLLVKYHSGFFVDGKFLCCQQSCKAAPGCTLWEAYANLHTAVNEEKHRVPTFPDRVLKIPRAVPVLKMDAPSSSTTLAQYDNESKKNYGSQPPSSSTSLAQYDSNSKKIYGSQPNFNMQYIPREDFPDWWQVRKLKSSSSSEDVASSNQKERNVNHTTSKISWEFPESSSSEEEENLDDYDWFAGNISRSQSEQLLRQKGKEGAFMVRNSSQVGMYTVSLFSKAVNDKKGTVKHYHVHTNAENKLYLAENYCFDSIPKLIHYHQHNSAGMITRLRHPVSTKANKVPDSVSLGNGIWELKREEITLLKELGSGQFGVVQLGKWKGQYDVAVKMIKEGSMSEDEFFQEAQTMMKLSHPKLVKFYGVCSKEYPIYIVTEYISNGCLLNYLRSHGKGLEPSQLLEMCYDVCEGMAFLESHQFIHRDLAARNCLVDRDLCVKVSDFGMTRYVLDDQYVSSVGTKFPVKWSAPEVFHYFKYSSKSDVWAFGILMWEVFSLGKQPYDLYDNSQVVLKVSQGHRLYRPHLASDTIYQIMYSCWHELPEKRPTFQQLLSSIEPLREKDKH
In words: Inhibition of BMX (unknown origin) assessed as residual activity at 200 nM relative to control.

The target in test [12] is T1, Tyrosine-protein kinase BTK. In words: Inhibition of N-terminal His tagged human recombinant full length BTK expressed in baculovirus infected Sf9 insect cells using Poly (4:1 Glu, Tyr) Peptide as substrate at 0.5 uM incubated for 60 mins by ADP-glo reagent based luminescence assay relative to control.
Test [13] can be described thus: Cytotoxicity against human MM.1 cells assessed as inhibition of cell growth incubated for 48 hrs by MTT assay. In kind it is functional, cell-based. Particulars: Mm1, 48 h.
The subject of test [14] is U-266. In words: Cytotoxicity against human U-266 cells assessed as inhibition of cell growth incubated for 48 hrs by MTT assay. In kind it is functional, cell-based. Conditions: U-266, 48 h.
A further test relates to RPMI-8226. In words: Cytotoxicity against human RPMI-8226 cells assessed as inhibition of cell growth incubated for 48 hrs by MTT assay. Type of test: functional, cell-based. Particulars: RPMI-8226, 48 h.
Test [15] deals with U-266. Nature of the test: Antitumor activity against human U-266 cells xenografted in BALB/c nude mouse assessed as tumor growth inhibition at 1 mg/kg, ip administered twice weekly and measured for 4 weeks by digital caliper analysis relative to control. Particulars: U-266, 672 h, read-out: TGI. Type of test: functional.
In test [16] the test system is BaF3. In words: Antiproliferative activity against mouse BaF3 cells expressing wild type FLT3 assessed as inhibition of cell growth. Type of test: functional, cell-based.
Test [17] deals with BaF3. Nature of the test: Antiproliferative activity against mouse BaF3 cells expressing […] FLT3 ITD mutant assessed as inhibition of cell growth. Type of test: functional, cell-based.
For test [18], the system named is BaF3. In words: Antiproliferative activity against mouse BaF3 cells expressing […] FLT3 […] mutant assessed as inhibition of cell growth. Type of test: functional, cell-based.
Another test has as its system MV4-11. In words: Antiproliferative activity against human MV4-11 cells assessed as inhibition of cell growth. In kind it is functional, cell-based.
Test [19] has as its system BaF3. In words: Antiproliferative activity against mouse BaF3 cells expressing […] FLT3 ITD/[…] double mutant assessed as inhibition of cell growth. In kind it is functional, cell-based.
Test [20] has as its system BaF3. Nature of the test: Antiproliferative activity against mouse BaF3 cells expressing […] FLT3 ITD F691L mutant assessed as inhibition of cell growth. Type of test: functional, cell-based.
The subject of a further test is MOLM-13. In words: Antiproliferative activity against human MOLM-13 cells assessed as inhibition of cell growth. In kind it is functional, cell-based.
Test [21] has as its system DOHH-2. Nature of the test: Antitumor activity against human DOHH-2 cells xenografted in CB17/SCID mouse assessed as reduction in tumor growth at 15 mg/kg, po administered once daily in combination with idelalisib at 25 mg/kg for 30 days and measured twice a week relative to control. Type of test: functional. Details: scale not given: the % may be the effect or the level left. Conditions: time 30 day.

Test [22] concerns DOHH-2. Nature of the test: Antitumor activity against human DOHH-2 cells xenografted in CB17/SCID mouse assessed as reduction in tumor growth at 30 mg/kg, po administered once daily in combination with idelalisib at 50 mg/kg for 30 days and measured twice a week relative to control. Type of test: functional. Also on record: scale not given: the % may be the effect or the level left. Conditions: time 30 day.

Consider `CC[C@H](Nc1ncnc2[nH]cnc12)c1nc2cccc(F)c2c(=O)n1-c1ccccc1` [IDELALISIB], for which the IC50 in the test with DOHH-2 [1] worked out at 860 nM. For the same compound, the results for the Activity with DOHH-2 [2] and with DOHH-2 [3] were 38.1% and 57.9%, respectively.

As for `CC[C@]1(O)C[C@@H]2CN(CCc3c([nH]c4ccccc34)[C@@](C(=O)OC)(c3cc4c(cc3OC)N(C)[C@H]3[C@@](O)(C(=O)OC)[C@H](OC(C)=O)[C@]5(CC)C=CCN6CC[C@]43[C@@H]65)C2)C1`, the inhibition at Tubulin (Homo sapiens) turned out to be 66%.

Turning to `CN1CCN([C@H]2CC[C@H](n3nc(-c4ccc(Oc5ccccc5)cc4)c4c(N)ncnc43)CC2)CC1`, the figures for the IC50 in test [4] and in test [5] were less than 0.5 nM and 0.92 nM, respectively.

For `Nc1ccc(-c2ccc3ncc4ccc(=O)n(-c5cccc(C(F)(F)F)c5)c4c3c2)cn1`, the IC50 in test [6] worked out at 0.25 nM.

As for `CC(C)Cc1nc2cc3c(cc2[nH]c1=O)nc(NC(=O)c1ccc(-c2ccncc2)cc1)n3CCCN1CCCCC1`, the IC50 in test [7] amounted to 50 nM. In addition, in the test with PC-3, the inhibition in vivo at 10 mg/kg/day worked out at 70%.

Take `Nc1ccc2c(c1)CC(n1nc(-c3cc(F)c4c(c3)NCCO4)c3c(N)ncnc31)C2` (stereo unspecified): the IC50 in the test with DOHH-2 [1] was 1340 nM. The Activity in the test on DOHH-2 [8] is on record as 45.2%.

In the case of `C=CC(=O)Nc1cccc(-c2c[nH]c3ncc(NC(=O)c4cccs4)cc23)c1`, the half-maximal inhibitory concentration (IC50) is greater than 10000 nM in [9] and less than 1 nM in test [5].

On to `C=CC(=O)Nc1cccc(-c2c[nH]c3ncccc23)c1`, for which the Activity in [10] came to 18.2%; in test [11] it was 2.7%.

In the case of `N#CSCc1ccc(CN2C(=O)C(=O)c3cc(Br)cc(Br)c32)cc1`, the inhibition in [12] worked out at 50%; on Tubulin (Homo sapiens), 77%. In addition, the IC50 (in test [13]; in the test on U-266 [14]; in the test with RPMI-8226) was 500 nM each time. Besides, the inhibition in vivo at 1 mg/kg in the test with U-266 [15] was 50%.

As to `Cc1cnc(-c2ccc(-c3ccc(NC(=O)Nc4cccc(C(F)(F)F)c4)cc3F)c3c2C(=O)NC3)[nH]1`, the concentration for half-maximal inhibition (IC50) with BaF3 [16] was found to be 9.49 nM; in the test on BaF3 [17] it was 0.3 nM; in the test with BaF3 [18] it was 8.26 nM; in the test with MV4-11, 0.17 nM; with BaF3 [19], 9.72 nM; in the test with BaF3 [20], 0.43 nM. In the test with MOLM-13, the IC50 came out at 0.82 nM.

For the compound `C=CC(=O)N1CCC[C@@H](n2nc(-c3ccc(Oc4ccccc4)cc3)c3c(N)ncnc32)C1` [IBRUTINIB], the IC50 in the test with DOHH-2 [1] was found to be 23 nM. In addition, the Activity in the test on DOHH-2 [21] is recorded as 38.1%; in the test with DOHH-2 [22], 57.9%.
